According to US11306101B2 (Celgene Corporation, priority 2019, dated 2022):

Molecular target: T1, CK1α (Homo sapiens, UniProt P48729+Q96SW2)
T1 construct: expressed in transfected cells
Assay: CK1α ePL degradation assay in MDS-L cells
Format: cell-based
Settings: MDS-L cells expressing ePL-tagged CK1α; for DC50: concentration giving 50% CK1α degradation vs DMSO control; for Y: lowest measured CK1α level normalized to DMSO control
Method: The following is an example of an assay that can be used to determine the CK1α degradation activity of Isoindolinone Carboxamide Compounds in a cell line, for example, the MDS-L cell line.
Compounds were dispensed by an acoustic dispenser (ATS acoustic transfer system from EDC Biosystems) into a 384-well in a 10 point dose-response curve using 3-fold dilutions starting at 10 μM and going down to 0.0005 μM in DMSO. […] Assay plates were incubated at 37° C. with 5% CO2 for the indicated times. At the different time points, 25 μL of the InCELL Hunter™ Detection Reagent Working Solution (catalog number 96-0002, DiscoverX, Fremont, Calif.) was added to each well and incubated at RT for 30 min protected from light. After 30 min, luminescence was read on a PHERAstar luminometer (BMG LABTECH, Cary, N.C.).
CK1α levels in compound-treated wells were normalized to that of DMSO control and expressed as percent of control (PoC) (y).
The lowest measured CK1α level normalized to DMSO control in response to compound treatment, termed Y value, was used to characterize the compound-mediated CK1α degradation efficiency.

T1 sequence (P48729 whole entry): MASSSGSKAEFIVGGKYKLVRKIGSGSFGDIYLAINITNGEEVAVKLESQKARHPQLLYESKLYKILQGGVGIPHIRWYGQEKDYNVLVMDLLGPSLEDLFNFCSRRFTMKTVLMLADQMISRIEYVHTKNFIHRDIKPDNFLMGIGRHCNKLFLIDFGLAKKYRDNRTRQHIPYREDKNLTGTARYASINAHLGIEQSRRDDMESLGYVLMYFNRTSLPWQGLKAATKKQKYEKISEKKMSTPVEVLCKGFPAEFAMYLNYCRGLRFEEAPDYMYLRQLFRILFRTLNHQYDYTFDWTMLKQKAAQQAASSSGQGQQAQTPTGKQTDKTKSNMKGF
T1 sequence (Q96SW2 whole entry): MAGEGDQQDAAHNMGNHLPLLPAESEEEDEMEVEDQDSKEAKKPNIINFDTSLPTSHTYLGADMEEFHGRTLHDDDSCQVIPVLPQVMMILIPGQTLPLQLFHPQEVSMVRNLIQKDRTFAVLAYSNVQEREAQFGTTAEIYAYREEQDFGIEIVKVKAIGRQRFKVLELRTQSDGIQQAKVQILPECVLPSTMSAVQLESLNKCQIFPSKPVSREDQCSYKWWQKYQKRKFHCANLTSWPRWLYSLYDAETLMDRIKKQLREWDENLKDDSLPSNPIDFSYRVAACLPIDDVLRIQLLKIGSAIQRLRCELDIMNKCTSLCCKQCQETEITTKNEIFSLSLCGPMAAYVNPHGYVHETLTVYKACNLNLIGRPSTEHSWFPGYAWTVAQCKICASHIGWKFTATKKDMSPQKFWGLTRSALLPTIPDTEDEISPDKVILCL
T1 sequence (Q16531 whole entry partner): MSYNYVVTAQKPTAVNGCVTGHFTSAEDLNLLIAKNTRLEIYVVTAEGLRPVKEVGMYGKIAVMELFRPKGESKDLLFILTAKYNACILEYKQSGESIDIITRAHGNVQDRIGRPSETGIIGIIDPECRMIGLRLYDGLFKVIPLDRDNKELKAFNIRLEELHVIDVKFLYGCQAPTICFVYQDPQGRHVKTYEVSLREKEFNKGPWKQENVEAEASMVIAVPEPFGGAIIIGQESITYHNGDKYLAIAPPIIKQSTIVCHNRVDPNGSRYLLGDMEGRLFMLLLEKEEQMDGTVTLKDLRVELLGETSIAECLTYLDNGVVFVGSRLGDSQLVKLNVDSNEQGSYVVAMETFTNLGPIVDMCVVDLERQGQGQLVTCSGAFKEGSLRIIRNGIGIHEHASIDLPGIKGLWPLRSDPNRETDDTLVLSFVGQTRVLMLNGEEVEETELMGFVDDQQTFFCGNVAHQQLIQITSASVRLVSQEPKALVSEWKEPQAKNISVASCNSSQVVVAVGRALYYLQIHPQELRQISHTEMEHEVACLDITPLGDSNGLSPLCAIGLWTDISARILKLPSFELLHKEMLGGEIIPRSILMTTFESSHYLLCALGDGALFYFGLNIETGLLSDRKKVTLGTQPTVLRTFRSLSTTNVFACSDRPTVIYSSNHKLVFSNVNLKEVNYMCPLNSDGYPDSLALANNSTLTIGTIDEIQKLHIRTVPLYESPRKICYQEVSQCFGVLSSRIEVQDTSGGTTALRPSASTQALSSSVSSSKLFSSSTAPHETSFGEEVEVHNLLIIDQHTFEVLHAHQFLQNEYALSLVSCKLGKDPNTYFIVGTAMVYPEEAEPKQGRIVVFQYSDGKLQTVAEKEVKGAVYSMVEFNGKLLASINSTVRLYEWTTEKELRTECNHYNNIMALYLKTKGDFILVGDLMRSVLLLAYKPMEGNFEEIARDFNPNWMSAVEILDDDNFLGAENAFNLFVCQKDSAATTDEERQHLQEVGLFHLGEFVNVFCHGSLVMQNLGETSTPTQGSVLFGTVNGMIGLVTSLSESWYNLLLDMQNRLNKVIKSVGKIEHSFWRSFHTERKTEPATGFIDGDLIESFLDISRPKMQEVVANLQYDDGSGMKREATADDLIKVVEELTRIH

O=C1CCC(N2Cc3cc(C(=O)N[C@H](c4ccccc4CN4CCOCC4)C(F)(F)F)ccc3C2=O)C(=O)N1 (stereo partly drawn) [Example 155, 2-(2,6-dioxopiperidin-3-yl)-1-oxo-N-((R)-2,2,2-trifluoro-1-(2-(morpholinomethyl)phenyl)ethyl)isoindoline-5-carboxamide]
DC50: < 100 nM | Y: * (a Y value (shown as *) of 0<Y≤20%)

O=C1CCC(N2Cc3cc(C(=O)N[C@H](c4c(F)cc(F)cc4Cl)C(F)(F)F)ccc3C2=O)C(=O)N1 (stereo partly drawn) [Example 203, N-((R)-1-(2-chloro-4,6-difluorophenyl)-2,2,2-trifluoroethyl)-2-(2,6-dioxopiperidin-3-yl)-1-oxoisoindoline-5-carboxamide]
DC50: < 100 nM | Y: * (a Y value (shown as *) of 0<Y≤20%)

CC(C)(C)[C@@H](NC(=O)c1ccc2c(c1)CN(C1CCC(=O)NC1=O)C2=O)C(F)(F)F (stereo partly drawn) [Example 34, 2-(2,6-dioxopiperidin-3-yl)-1-oxo-N-((R)-1,1,1-trifluoro-3,3-dimethylbutan-2-yl)isoindoline-5-carboxamide]
DC50: 100 to 500 nM | Y: ** (a Y value (shown as**) of 20%<Y≤35%)

C[C@H](NC(=O)c1ccc2c(c1)CN(C1CCC(=O)NC1=O)C2=O)c1ccc(F)cc1 (some centres unmarked) [Example 16]
DC50: < 100 nM | Y: ** (a Y value (shown as**) of 20%<Y≤35%)

C[C@@H](NC(=O)c1ccc2c(c1)CN(C1CCC(=O)NC1=O)C2=O)c1ccccc1C#N (stereo partly drawn) [Example 131, N-((R)-1-(2-cyanophenyl)ethyl)-2-(2,6-dioxopiperidin-3-yl)-1-oxoisoindoline-5-carboxamide]
DC50: < 100 nM | Y: ** (a Y value (shown as**) of 20%<Y≤35%)

O=C1CCC(N2Cc3cc(C(=O)N[C@H](C4CCC(F)(F)CC4)C(F)(F)F)ccc3C2=O)C(=O)N1 (stereo partly drawn) [Example 45, N-((R)-1-(4,4-difluorocyclohexyl)-2,2,2-trifluoroethyl)-2-(2,6-dioxopiperidin-3-yl)-1-oxoisoindoline-5-carboxamide]
DC50: 100 to 500 nM | Y: * (a Y value (shown as *) of 0<Y≤20%)

O=C1CCC(N2Cc3cc(C(=O)N[C@H](c4ccc(Cl)cc4)C(F)(F)F)c(F)cc3C2=O)C(=O)N1 (stereo partly drawn) [Example 91, N-((R)-1-(4-chlorophenyl)-2,2,2-trifluoroethyl)-2-(2,6-dioxopiperidin-3-yl)-6-fluoro-1-oxoisoindoline-5-carboxamide]
DC50: < 100 nM | Y: ** (a Y value (shown as**) of 20%<Y≤35%)

O=C1CCC(N2Cc3cc(C(=O)N[C@H](C4CCN(CC(F)(F)F)CC4)C(F)(F)F)ccc3C2=O)C(=O)N1 (stereo partly drawn) [Example 143, 2-(2,6-dioxopiperidin-3-yl)-1-oxo-N-((R)-2,2,2-trifluoro-1-(1-(2,2,2-trifluoroethyl)piperidin-4-yl)ethyl)isoindoline-5-carboxamide]
DC50: 100 to 500 nM | Y: * (a Y value (shown as *) of 0<Y≤20%)

O=C1CCC(N2Cc3cc(C(=O)N[C@H](c4ccc(Cl)cn4)C(F)(F)F)ccc3C2=O)C(=O)N1 (stereo partly drawn) [Example 109, N-((R)-1-(5-chloropyridin-2-yl)-2,2,2-trifluoroethyl)-2-(2,6-dioxopiperidin-3-yl)-1-oxoisoindoline-5-carboxamide]
DC50: < 100 nM | Y: * (a Y value (shown as *) of 0<Y≤20%)

O=C1CCC(N2Cc3cc(C(=O)N[C@H](c4ccc(F)cc4Cl)C(F)(F)F)ccc3C2=O)C(=O)N1 (stereo partly drawn) [Example 72, N-((R)-1-(2-chloro-4-fluorophenyl)-2,2,2-trifluoroethyl)-2-(2,6-dioxopiperidin-3-yl)-1-oxoisoindoline-5-carboxamide]
DC50: < 100 nM | Y: * (a Y value (shown as *) of 0<Y≤20%)

COc1ccc([C@H](C)NC(=O)c2ccc3c(c2)CN(C2CCC(=O)NC2=O)C3=O)cc1 (some centres unmarked) [Example 12]
DC50: < 100 nM | Y: ** (a Y value (shown as**) of 20%<Y≤35%)

CN1CCN(c2ccc([C@@H](NC(=O)c3ccc4c(c3)CN(C3CCC(=O)NC3=O)C4=O)C(F)(F)F)cc2)CC1 (stereo partly drawn) [Example 208, 2-(2,6-dioxopiperidin-3-yl)-1-oxo-N-((R)-2,2,2-trifluoro-1-(4-(4-methylpiperazin-1-yl)phenyl)ethyl)isoindoline-5-carboxamide]
DC50: < 100 nM | Y: * (a Y value (shown as *) of 0<Y≤20%)

CC(F)(F)C(NC(=O)c1ccc2c(c1)CN(C1CCC(=O)NC1=O)C2=O)c1ccc(F)cc1 (centres unmarked) [Example 174, N-(2,2-difluoro-1-(4-fluorophenyl)propyl)-2-(2,6-dioxopiperidin-3-yl)-1-oxoisoindoline-5-carboxamide]
DC50: < 100 nM | Y: * (a Y value (shown as *) of 0<Y≤20%)

O=C1CCC(N2Cc3cc(C(=O)N[C@H](c4ccc(Cl)cc4)C(F)(F)F)ccc3C2=O)C(=O)N1 (stereo partly drawn) [Example 42, N-((R)-1-(4-chlorophenyl)-2,2,2-trifluoroethyl)-2-(2,6-dioxopiperidin-3-yl)-1-oxoisoindoline-5-carboxamide]
DC50: < 100 nM | Y: * (a Y value (shown as *) of 0<Y≤20%)

CC(C)[C@H](NC(=O)c1ccc2c(c1)CN(C1CCC(=O)NC1=O)C2=O)c1ccc(F)cc1 (stereo partly drawn) [Example 170, 2-(2,6-dioxopiperidin-3-yl)-N-((S)-1-(4-fluorophenyl)-2-methylpropyl)-1-oxoisoindoline-5-carboxamide]
DC50: < 100 nM | Y: * (a Y value (shown as *) of 0<Y≤20%)

CN(C)Cc1cccc([C@@H](NC(=O)c2ccc3c(c2)CN(C2CCC(=O)NC2=O)C3=O)C(F)(F)F)c1 (stereo partly drawn) [Example 150, N-((R)-1-(3-((dimethylamino)methyl)phenyl)-2,2,2-trifluoroethyl)-2-(2,6-dioxopiperidin-3-yl)-1-oxoisoindoline-5-carboxamide]
DC50: 100 to 500 nM | Y: ** (a Y value (shown as**) of 20%<Y≤35%)

O=C1CCC(N2Cc3cc(C(=O)N[C@H](c4ccccn4)C(F)(F)F)ccc3C2=O)C(=O)N1 (stereo partly drawn) [Example 48, 2-(2,6-dioxopiperidin-3-yl)-1-oxo-N-((R)-2,2,2-trifluoro-1-(pyridin-2-yl)ethyl)isoindoline-5-carboxamide]
DC50: 100 to 500 nM | Y: ** (a Y value (shown as**) of 20%<Y≤35%)

CC(C)(O)C12CC([C@@H](NC(=O)c3ccc4c(c3)CN(C3CCC(=O)NC3=O)C4=O)C(F)(F)F)(C1)C2 (stereo partly drawn) [Example 165, 2-(2,6-dioxopiperidin-3-yl)-1-oxo-N-((R)-2,2,2-trifluoro-1-(3-(2-hydroxypropan-2-yl)bicyclo[1.1.1]pentan-1-yl)ethyl)isoindoline-5-carboxamide]
DC50: < 100 nM | Y: * (a Y value (shown as *) of 0<Y≤20%)

CN(C)Cc1ccc([C@@H](NC(=O)c2ccc3c(c2)CN(C2CCC(=O)NC2=O)C3=O)C(F)(F)F)c(Cl)c1 (stereo partly drawn) [Example 198, N-((R)-1-(2-chloro-4-((dimethylamino)methyl)phenyl)-2,2,2-trifluoroethyl)-2-(2,6-dioxopiperidin-3-yl)-1-oxoisoindoline-5-carboxamide]
DC50: < 100 nM | Y: * (a Y value (shown as *) of 0<Y≤20%)

C[C@H](NC(=O)c1ccc2c(c1)CN(C1CCC(=O)NC1=O)C2=O)c1ccc(Cl)cc1F (stereo partly drawn) [Example 55, N-((S)-1-(4-chloro-2-fluorophenyl)ethyl)-2-(2,6-dioxopiperidin-3-yl)-1-oxoisoindoline-5-carboxamide]
DC50: < 100 nM | Y: * (a Y value (shown as *) of 0<Y≤20%)

O=C1CCC(N2Cc3c(ccc(C(=O)N[C@H](c4cccc(Cl)c4)C(F)(F)F)c3F)C2=O)C(=O)N1 (stereo partly drawn) [Example 107, N-((R)-1-(3-chlorophenyl)-2,2,2-trifluoroethyl)-2-(2,6-dioxopiperidin-3-yl)-4-fluoro-1-oxoisoindoline-5-carboxamide]
DC50: 100 to 500 nM | Y: ** (a Y value (shown as**) of 20%<Y≤35%)

O=C1CCC(N2Cc3c(ccc(C(=O)N[C@H](c4ccccc4OC(F)(F)F)C(F)(F)F)c3F)C2=O)C(=O)N1 (stereo partly drawn) [Example 136, 2-(2,6-dioxopiperidin-3-yl)-4-fluoro-1-oxo-N-((R)-2,2,2-trifluoro-1-(2-(trifluoromethoxy)phenyl)ethyl)isoindoline-5-carboxamide]
DC50: < 100 nM | Y: * (a Y value (shown as *) of 0<Y≤20%)

O=C1CCC(N2Cc3cc(C(=O)N[C@H](c4ccc(C(F)(F)F)cc4)C(F)(F)F)ccc3C2=O)C(=O)N1 (stereo partly drawn) [Example 40, 2-(2,6-dioxopiperidin-3-yl)-1-oxo-N-((R)-2,2,2-trifluoro-1-(4-(trifluoromethyl)phenyl)ethyl)isoindoline-5-carboxamide]
DC50: < 100 nM | Y: * (a Y value (shown as *) of 0<Y≤20%)

O=C1CCC(N2Cc3cc(C(=O)N[C@H](c4ncc(F)cc4Cl)C(F)(F)F)ccc3C2=O)C(=O)N1 (stereo partly drawn) [Example 175, N-((R)-1-(3-chloro-5-fluoropyridin-2-yl)-2,2,2-trifluoroethyl)-2-(2,6-dioxopiperidin-3-yl)-1-oxoisoindoline-5-carboxamide]
DC50: < 100 nM | Y: * (a Y value (shown as *) of 0<Y≤20%)

O=C1CCC(N2Cc3c(ccc(C(=O)N[C@H](c4ccc(OC5CC5)cc4)C(F)(F)F)c3F)C2=O)C(=O)N1 (stereo partly drawn) [Example 130, N-((R)-1-(4-cyclopropoxyphenyl)-2,2,2-trifluoroethyl)-2-(2,6-dioxopiperidin-3-yl)-4-fluoro-1-oxoisoindoline-5-carboxamide]
DC50: 100 to 500 nM | Y: ** (a Y value (shown as**) of 20%<Y≤35%)
